Assay results: publication PMC9774648, “Synthesis, Physicochemical Properties and Molecular Docking of New Benzothiazole Derivatives as Antimicrobial Agents Targeting DHPS Enzyme” (Antibiotics, 2022)
Converted amounts (≈) assume the structure as drawn.

Experiments:
E. coli (ATCC: 3008) = test: Agar well diffusion, inhibition zone, E. coli; format: cell-based; settings: agar well diffusion, 15 mg/mL, 100 μL per well, 37 °C 24 h, mean ± SD, triplicate
[1] = tested on: K. pneumonia (ATCC: 4415); test: Agar well diffusion, inhibition zone, K. pneumonia; format: cell-based; settings: Klebsiella pneumoniae; agar well diffusion, 15 mg/mL, 100 μL per well, 37 °C 24 h, mean ± SD, triplicate; read-out: Diameter of the Inhibition Zone, K. pneumonia
K. pneumonia = test: MIC, twofold serial dilution, K. pneumonia; format: cell-based; settings: Klebsiella pneumoniae; twofold serial dilution in broth, 37 °C 16–20 h; read-out: The Minimum Inhibitory Concentration (MIC), K. pneumonia
[2] = tested on: P. aeruginosa (ATCC: 27853); test: Agar well diffusion, inhibition zone, P. aeruginosa; format: cell-based; settings: Pseudomonas aeruginosa; agar well diffusion, 15 mg/mL, 100 μL per well, 37 °C 24 h, mean ± SD, triplicate; read-out: Diameter of the Inhibition Zone, P. aeruginosa
S. aureus = test: MIC, twofold serial dilution, S. aureus; format: cell-based; settings: Staphylococcus aureus; twofold serial dilution in broth, 37 °C 16–20 h; read-out: The Minimum Inhibitory Concentration (MIC), S. aureus
Description: The new synthetic compounds, 6a–c, 12a–c, 14a–c, 16a–c and 19a–e, were tested in vitro to evaluate antibacterial activities against Gram-negative and Gram-positive bacteria, such as E. coli (ATCC: 3008), K. pneumonia (ATCC: 4415) and P. aeruginosa (ATCC: 27853), as an example for Gram-negative bacteria, as well as S. aureus (ATCC: 6538) and S. mutans (ATCC: 25175) for Gram-positive bacteria. The antifungal activities were evaluated also for the novel compounds in vitro against C. albicans (ATCC: 10231). The antibacterial and antifungal activities were determined by the agar-diffusion method using gentamicin, ampicillin and sulfadiazine, example of sulfa drug, as standard drugs against Gram-negative and Gram-positive, while nystatin was used as standard drug against the fungal strain. Table 1 summarizes the results for all tested compounds as the average diameter of inhibition zones of microbial growth around the discs in mm ± SD.
For each strain, three to five isolated colonies were selected from the fresh agar plate and were transferred into a tube containing 3–4 mL of sterile broth medium. The bacterial suspension was mixed well and incubated at 35–37 °C for 2–6 h. The turbidity of the bacterial suspension should be equal to or greater than the turbidity of a McFarland Standard 0.5. After that, 1 mg of the tested compound (antimicrobial agent) was dissolved in 1 mL DMSO and two-fold serial dilution was done using broth medium. A fixed volume of the prepared bacterial inoculum was added to each tube and incubated for at 37 °C 16–20 h. The MIC is defined as the lowest concentration of the antimicrobial agent that inhibits visible growth of the tested isolate as observed with the unaided eye.

P. aeruginosa = test: MIC, twofold serial dilution, P. aeruginosa; format: cell-based; settings: Pseudomonas aeruginosa; twofold serial dilution in broth, 37 °C 16–20 h; read-out: The Minimum Inhibitory Concentration (MIC), P. aeruginosa
[3] = target: DHPS enzyme (dihydropteroate synthase) (Bacillus anthracis, UniProt Q81VW8); test: biochemical
Chain of DHPS enzyme (dihydropteroate synthase) (Q81VW8 1-280): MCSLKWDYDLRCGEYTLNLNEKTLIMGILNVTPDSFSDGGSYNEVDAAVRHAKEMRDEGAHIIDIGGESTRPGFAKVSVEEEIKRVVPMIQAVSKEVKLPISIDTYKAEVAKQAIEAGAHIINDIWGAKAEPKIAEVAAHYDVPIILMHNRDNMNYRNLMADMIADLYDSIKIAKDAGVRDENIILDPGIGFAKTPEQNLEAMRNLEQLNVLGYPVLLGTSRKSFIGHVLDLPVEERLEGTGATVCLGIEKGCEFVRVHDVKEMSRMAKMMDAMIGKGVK

[4] = tested on: C. albicans (ATCC: 10231); test: Agar well diffusion, inhibition zone, C. albicans; format: cell-based; settings: Candida albicans, 15 mg/mL, 100 μL per well, mean ± SD, triplicate, read-out: Diameter of the Inhibition Zone, C. albicans
S. aureus (ATCC: 6538) = test: Agar well diffusion, inhibition zone, S. aureus; format: cell-based; settings: Staphylococcus aureus; agar well diffusion, 15 mg/mL, 100 μL per well, 37 °C 24 h, mean ± SD, triplicate; read-out: Diameter of the Inhibition Zone, S. aureus
S. mutans (ATCC: 25175) = test: Agar well diffusion, inhibition zone, S. mutans; format: cell-based; settings: Streptococcus mutans; agar well diffusion, 15 mg/mL, 100 μL per well, 37 °C 24 h, mean ± SD, triplicate; read-out: Diameter of the Inhibition Zone, S. mutans
S. mutans = test: MIC, twofold serial dilution, S. mutans; format: cell-based; settings: Streptococcus mutans; twofold serial dilution in broth, 37 °C 16–20 h; read-out: The Minimum Inhibitory Concentration (MIC), S. mutans

O=c1[nH][nH]c(-c2ccc(F)cc2)c1-c1nc2ccccc2s1 [Compound 16a, 4-(Benzo[d]thiazole-2-yl)-5-(4-florophenyl)-1H-pyrazol-3(2H)-one]
Diameter of the Inhibition Zone, E. coli (E. coli (ATCC: 3008)): - | zone of inhibition at 15000 µg/mL [1]: 17.3 ± 0.6 mm | MIC (K. pneumonia): 803 µM (≈ 250 µg/mL) | zone of inhibition at 15000 µg/mL [2]: 16.6 ± 0.5 mm | MIC (S. aureus): 1610 µM (≈ 500 µg/mL) | melting point: 238 to 240 °C | MIC (P. aeruginosa): 1610 µM (≈ 500 µg/mL) | IC50 [3]: 35.9 µM | inhibition at 0.1 µg/mL ([3]; 0.1 μg/mL, read-out: Inhibition % against DHPS enzyme): 12% | inhibition at 1 µg/mL ([3]; 1 μg/mL, read-out: Inhibition % against DHPS enzyme): 26% | inhibition at 10 µg/mL ([3]; 10 μg/mL, read-out: Inhibition % against DHPS enzyme): 49% | inhibition at 100 µg/mL ([3]; 100 μg/mL, read-out: Inhibition % against DHPS enzyme): 70% | zone of inhibition at 15000 µg/mL [4]: 12.3 ± 0.5 mm | zone of inhibition at 15000 µg/mL (S. aureus (ATCC: 6538)): 15.3 ± 0.5 mm | zone of inhibition at 15000 µg/mL (S. mutans (ATCC: 25175)): 25 ± 0.6 mm | MIC (S. mutans): 200 µM (≈ 62.3 µg/mL)
